Values quoted from earlier work, collected in patent publication US9907782B2, “Treatment or prevention of seborrheic keratosis using artemisinin and derivatives thereof” (EPIPHARM AG, priority 2014, dated 2018).

How the values were obtained:
melanin synthesis = conditions: according to US 2010/0061948 A1, allegedly
tyrosinase = target: T1, tyrosinase (Homo sapiens, UniProt P14679); conditions: according to US 2010/0061948 A1, allegedly
T1 sequence (P14679 19-529): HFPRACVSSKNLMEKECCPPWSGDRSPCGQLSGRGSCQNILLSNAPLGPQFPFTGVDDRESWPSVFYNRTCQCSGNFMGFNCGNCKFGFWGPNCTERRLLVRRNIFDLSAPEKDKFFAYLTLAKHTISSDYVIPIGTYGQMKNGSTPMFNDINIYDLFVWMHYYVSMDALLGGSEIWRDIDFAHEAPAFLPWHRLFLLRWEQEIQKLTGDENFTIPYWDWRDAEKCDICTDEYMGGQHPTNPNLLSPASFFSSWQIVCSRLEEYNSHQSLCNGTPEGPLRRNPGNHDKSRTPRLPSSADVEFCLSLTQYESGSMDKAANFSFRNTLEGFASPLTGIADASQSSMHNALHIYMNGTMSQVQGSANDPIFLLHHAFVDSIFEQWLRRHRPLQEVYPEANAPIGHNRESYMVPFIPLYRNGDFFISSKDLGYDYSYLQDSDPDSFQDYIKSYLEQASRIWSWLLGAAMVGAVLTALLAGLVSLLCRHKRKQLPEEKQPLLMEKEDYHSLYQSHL

psoriasis = conditions: topical; three psoriasis patients
[1] = tested on: seborrheic keratosis lesions
[2] = tested on: seborrheic keratosis lesions; conditions: for clinical improvement: once daily application, calcipotriene 0.005% ointment, imiquimod 5% cream

**Q.** Which results are given for `C[C@@H]1CC[C@H]2[C@@H](C)C(=O)O[C@@H]3O[C@@]4(C)CC[C@@H]1[C@]32OO4` [artemisinin]?
**A.** melanin synthesis (melanin synthesis): suppressed; tyrosinase activity (tyrosinase): suppressed; treatment of psoriasis (psoriasis): successfully; solubility in water: very hard to dissolve in water

**Q.** With `C[C@H]1[C@H](OC(=O)CCC(=O)O)O[C@@H]2O[C@@]3(C)CC[C@H]4[C@H](C)CC[C@@H]1[C@@]24OO3` [artesunate] as the compound, how does the solubility in water read?
**A.** more water-soluble

**Q.** What does the source list for `NC(N)=O` [urea]?
**A.** side effects ([1]; 50% urea under occlusion): no side effects were reported; thickness of seborrheic keratosis lesions ([1]; 50% urea under occlusion and digitally scraping the lesions, lesions did persist albeit with reduced size): some reduction of the thickness

**Q.** With `C=C1/C(=C\C=C2/CCC[C@]3(C)[C@@H]([C@H](C)/C=C/[C@@H](O)C4CC4)CC[C@@H]23)C[C@@H](O)C[C@@H]1O` [calcipotriene] as the compound, how does the clinical improvement ([2]; tazarotene 0.1% cream) read?
**A.** did not result in any clinical improvement

**Q.** Which clinical improvement ([2]; tazarotene 0.1% cream) does the source give for `CC(C)Cn1cnc2c(N)nc3ccccc3c21` [imiquimod] here?
**A.** did not result in any clinical improvement

**Q.** For `CCOC(=O)c1ccc(C#Cc2ccc3c(c2)C(C)(C)CCS3)nc1` [tazarotene], which “clinical and histological improvement” value ([2]; bi-daily application, tazarotene 0.1% cream) is on record?
**A.** less than half the patients

**Q.** And the clinical improvement ([2]; tazarotene 0.1% cream)?
**A.** did not result in any clinical improvement

**Q.** What about the “patients reporting burning, pruritus and redness (irritation)” value ([2]; topical tazarotene) of the same compound?
**A.** ⅔

**Q.** With `C[C@H]1[C@@H](O)O[C@@H]2O[C@@]3(C)CC[C@H]4[C@H](C)CC[C@@H]1[C@@]24OO3` [dihydroartemisinin] as the compound, how does the solubility in water read?
**A.** more water-soluble
